Laboratory results published in US20250282768A1 (Janssen Pharmaceutica NV, priority 2022, published 2025).

Test system: p-IKKa levels in L363 (NIK translocated multiple myeloma) cells
Test: Assay 2: Effect of compounds on p-IKKa levels in L363 (NIK translocated multiple myeloma) cells
Assay type: cell-based
Conditions: Homo sapiens, L-363, 6 h, read-out: Assay 2 IC50 (nM), p-IKKa (Ser 176/180) in BAFF stimulated L363 cells with MG132, 6 h; average if tested more than once
Method in brief: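 L363 cells incubated overnight ± 250 ng/ml BAFF, then 6 h at 37 °C with compound (0.3% DMSO) ± 10 μM MG132. Lysates assayed for p-IKKa (Ser176/180) by AlphaLISA SureFire. IC50 from sigmoidal fit of % inhibition normalized to BAFF/MG132-stimulated and unstimulated controls.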

| Structure (SMILES) | IC50 [nM] |
| --- | --- |
| C[C@@H](Nc1nccc(-c2cccc(-c3cc([C@]4(O)CCN(C)C4=O)on3)n2)n1)c1cccnc1 [Example 375, (R)-3-Hydroxy-1-methyl-3-(3-(6-(2-(((R)-1-(pyridin-3-yl)ethyl)amino)pyrimidin-4-yl)pyridin-2-yl)isoxazol-5-yl)pyrrolidin-2-one] | 50 to 500 |
| CN1CC[C@@](O)(c2cnn(-c3cccc(-c4ccnc(Nc5cn(CC(F)F)nc5OC5CC5)n4)n3)c2)C1=O [Example 97, (R)-3-(1-(6-(2-((3-Cyclopropoxy-1-(2,2-difluoroethyl)-1H-pyrazol-4-yl)amino)pyrimidin-4-yl)pyridin-2-yl)-1H-pyrazol-4-yl)-3-hydroxy-1-methylpyrrolidin-2-one] | 50 to 500 |
| CC(Nc1nccc(-c2cccc(-c3cc([C@]4(O)CCN(C)C4=O)on3)n2)n1)c1cc[nH]n1 (stereo partly drawn) [Example 147, (3R)-3-(3-(6-(2-((1-(1H-Pyrazol-3-yl)ethyl)amino)pyrimidin-4-yl)pyridin-2-yl)isoxazol-5-yl)-3-hydroxy-1-methylpyrrolidin-2-one] | 50 to 500 |
| CN1CC[C@@](O)(c2cc(-c3cccc(-c4ccnc(NC5CC(F)(F)C5)n4)n3)no2)C1=O [Example 439, (R)-3-(3-(6-(2-((3,3-Difluorocyclobutyl)amino)pyrimidin-4-yl)pyridin-2-yl)isoxazol-5-yl)-3-hydroxy-1-methylpyrrolidin-2-one] | 50 to 500 |
| CN1CCn2nc(Nc3nccc(-c4cccc(-c5cc([C@]6(O)CCN(C)C6=O)on5)c4)n3)cc2C1=O [Example 23, (R)-2-((4-(3-(5-(3-Hydroxy-1-methyl-2-oxopyrrolidin-3-yl)isoxazol-3-yl)phenyl)pyrimidin-2-yl)amino)-5-methyl-6,7-dihydropyrazolo[1,5-a]pyrazin-4(5H)-one] | 50 to 500 |
| CN1CC[C@@](O)(c2cc(-c3cccc(-c4ccnc(Nc5ccn(C)n5)n4)n3)[nH]n2)C1=O (single isomer, unassigned) [Example 85] | 50 to 500 |
| Cc1ncccc1Nc1nccc(-c2cccc(-c3cc([C@]4(O)CCN(C)C4=O)on3)n2)n1 [Example 197, (R)-3-Hydroxy-1-methyl-3-(3-(6-(2-((2-methylpyridin-3-yl)amino)pyrimidin-4-yl)pyridin-2-yl)isoxazol-5-yl)pyrrolidin-2-one] | < 50 |
| CN1CC[C@@](O)(c2cc(-c3cccc(-c4ccnc(N[C@H]5C[C@H](F)C5)n4)n3)no2)C1=O [Example 349, (R)-3-(3-(6-(2-(((1r,3R)-3-Fluorocyclobutyl)amino)pyrimidin-4-yl)pyridin-2-yl)isoxazol-5-yl)-3-hydroxy-1-methylpyrrolidin-2-one] | 50 to 500 |
| CN1CC[C@@](O)(c2cc(-c3cccc(-c4ccnc(Nc5cn(C)nc5N)n4)c3)no2)C1=O [Example 415, (R)-3-(3-(3-(2-((3-Amino-1-methyl-1H-pyrazol-4-yl)amino)pyrimidin-4-yl)phenyl)isoxazol-5-yl)-3-hydroxy-1-methylpyrrolidin-2-one] | > 500 |
| CO[C@H]1C[C@@H](Nc2nccc(-c3cccc(-c4cc([C@]5(O)CCN(C)C5=O)on4)n3)n2)C1 [Example 351, (R)-3-Hydroxy-3-(3-(6-(2-(((1s,3S)-3-methoxycyclobutyl)amino)pyrimidin-4-yl)pyridin-2-yl)isoxazol-5-yl)-1-methylpyrrolidin-2-one] | 50 to 500 |
| C[C@@H](Nc1nccc(-c2cccc(-c3cc([C@]4(O)CCN(C)C4=O)on3)n2)n1)c1ccccn1 [Example 363, (R)-3-Hydroxy-1-methyl-3-(3-(6-(2-(((R)-1-(pyridin-2-yl)ethyl)amino)pyrimidin-4-yl)pyridin-2-yl)isoxazol-5-yl)pyrrolidin-2-one] | 50 to 500 |
| Cc1ccn2cnnc2c1Nc1nccc(-c2cccc(-c3cc([C@]4(O)CCN(C)C4=O)on3)n2)n1 [Example 273, (R)-3-Hydroxy-1-methyl-3-(3-(6-(2-((7-methyl-[1,2,4]triazolo[4,3-a]pyridin-8-yl)amino)pyrimidin-4-yl)pyridin-2-yl)isoxazol-5-yl)pyrrolidin-2-one] | > 500 |
| CN1CC[C@@](O)(c2cc(-c3cccc(-c4ccnc(N[C@H](CO)c5ccccc5)n4)n3)no2)C1=O [Example 386, (R)-3-Hydroxy-3-(3-(6-(2-(((S)-2-hydroxy-1-phenylethyl)amino)pyrimidin-4-yl)pyridin-2-yl)isoxazol-5-yl)-1-methylpyrrolidin-2-one] | 50 to 500 |
| Cc1ccc(Nc2nccc(-c3cccc(-c4cc([C@]5(O)CCN(C)C5=O)on4)n3)n2)cn1 [Example 332, (R)-3-Hydroxy-1-methyl-3-(3-(6-(2-((6-methylpyridin-3-yl)amino)pyrimidin-4-yl)pyridin-2-yl)isoxazol-5-yl)pyrrolidin-2-one] | 50 to 500 |
| COc1nn(CC(F)F)cc1Nc1nccc(-c2cccc(-c3cnc([C@]4(O)CCN(C)C4=O)s3)n2)n1 (single isomer, unassigned) [Example 188, (*R)-3-(5-(6-(2-((1-(2,2-Difluoroethyl)-3-methoxy-1H-pyrazol-4-yl)amino)pyrimidin-4-yl)pyridin-2-yl)thiazol-2-yl)-3-hydroxy-1-methylpyrrolidin-2-one] | < 50 |
| COc1cncc(Nc2nccc(-c3cccc(-c4cc([C@]5(O)CCN(C)C5=O)on4)n3)n2)c1 [Example 288, (R)-3-Hydroxy-3-(3-(6-(2-((5-methoxypyridin-3-yl)amino)pyrimidin-4-yl)pyridin-2-yl)isoxazol-5-yl)-1-methylpyrrolidin-2-one] | < 50 |
| CN1CC[C@@](O)(c2cc(-c3cccc(-c4ccnc(Nc5cnn6c5COCC6)n4)n3)no2)C1=O [Example 302, (R)-3-(3-(6-(2-((6,7-Dihydro-4H-pyrazolo[5,1-c][1,4]oxazin-3-yl)amino)pyrimidin-4-yl)pyridin-2-yl)isoxazol-5-yl)-3-hydroxy-1-methylpyrrolidin-2-one] | < 50 |
| CN1CC[C@@](O)(c2cn(-c3cccc(-c4ccnc(Nc5ccn(CC(F)F)n5)n4)n3)nn2)C1=O [Example 214, (R)-3-(1-(6-(2-((1-(2,2-Difluoroethyl)-1H-pyrazol-3-yl)amino)pyrimidin-4-yl)pyridin-2-yl)-1H-1,2,3-triazol-4-yl)-3-hydroxy-1-methylpyrrolidin-2-one] | < 50 |
| CN1CC[C@@](O)(c2cc(-c3cccc(-c4ccnc(Nc5nc(C6CCOCC6)nn5C)n4)n3)no2)C1=O [Example 266, (R)-3-Hydroxy-1-methyl-3-(3-(6-(2-((1-methyl-3-(tetrahydro-2H-pyran-4-yl)-1H-1,2,4-triazol-5-yl)amino)pyrimidin-4-yl)pyridin-2-yl)isoxazol-5-yl)pyrrolidin-2-one] | > 500 |
| C[C@@H](Nc1nccc(-c2cccc(-c3cc([C@]4(O)CCN(C)C4=O)on3)n2)n1)c1cnc2ccccn12 (single isomer, unassigned) [Example 160] | > 500 |
| CCn1ccc(Nc2nccc(-c3cccc(-c4cc([C@]5(O)CCN(C)C5=O)no4)n3)n2)n1 [Example 237, (R)-3-(5-(6-(2-((1-Ethyl-1H-pyrazol-3-yl)amino)pyrimidin-4-yl)pyridin-2-yl)isoxazol-3-yl)-3-hydroxy-1-methylpyrrolidin-2-one] | < 50 |
| CCC(Nc1nccc(-c2cccc(-c3cc([C@]4(O)CCN(C)C4=O)on3)n2)n1)c1ccn(C)n1 (stereo partly drawn) [Example 389, (3R)-3-Hydroxy-1-methyl-3-(3-(6-(2-((1-(1-methyl-1H-pyrazol-3-yl)propyl)amino)pyrimidin-4-yl)pyridin-2-yl)isoxazol-5-yl)pyrrolidin-2-one] | 50 to 500 |
| C[C@H](Nc1nccc(-c2cccc(-c3cc([C@]4(O)CCN(C)C4=O)on3)n2)n1)c1ccccn1 [Example 376, (R)-3-Hydroxy-1-methyl-3-(3-(6-(2-(((S)-1-(pyridin-2-yl)ethyl)amino)pyrimidin-4-yl)pyridin-2-yl)isoxazol-5-yl)pyrrolidin-2-one] | 50 to 500 |
| CN1CC(F)(F)[C@@](O)(c2cc(-c3cccc(-c4ccnc(Nc5cnn(C)c5)n4)n3)no2)C1=O [Example 3, (R)-4,4-Difluoro-3-hydroxy-1-methyl-3-(3-(6-(2-((1-methyl-1H-pyrazol-4-yl)amino)pyrimidin-4-yl)pyridin-2-yl)isoxazol-5-yl)pyrrolidin-2-one] | < 50 |
| CN1CC[C@@](O)(c2cc(-c3cncc(-c4ccnc(Nc5ccn(C)n5)n4)n3)no2)C1=O [Example 95, (R)-3-Hydroxy-1-methyl-3-(3-(6-(2-((1-methyl-1H-pyrazol-3-yl)amino)pyrimidin-4-yl)pyrazin-2-yl)isoxazol-5-yl)pyrrolidin-2-one] | 50 to 500 |
| C[C@H](O)[C@@H](Nc1nccc(-c2cccc(-c3cc([C@]4(O)CCN(C)C4=O)on3)n2)n1)c1ccccc1 [Example 158, (R)-3-Hydroxy-3-(3-(6-(2-(((1 S,2S)-2-hydroxy-1-phenylpropyl)amino)pyrimidin-4-yl)pyridin-2-yl)isoxazol-5-yl)-1-methylpyrrolidin-2-one] | > 500 |
| CN1CC[C@@](O)(c2cc(-c3cccc(-c4ccnc(N[C@H]5CCCC[C@H]5O)n4)n3)no2)C1=O (single isomer, unassigned) [Example 337] | > 500 |
| CNC(=O)[C@H](C)Nc1nccc(-c2cccc(-c3cc([C@]4(O)CCN(C)C4=O)on3)n2)n1 [Example 183, (S)-2-((4-(6-(5-((R)-3-Hydroxy-1-methyl-2-oxopyrrolidin-3-yl)isoxazol-3-yl)pyridin-2-yl)pyrimidin-2-yl)amino)-N-methylpropanamide] | 50 to 500 |
| CN(C)C[C@H](Nc1nccc(-c2cccc(-c3cc([C@]4(O)CCN(C)C4=O)on3)n2)n1)c1ccccc1 [Example 396, (R)-3-(3-(6-(2-(((R)-2-(Dimethylamino)-1-phenylethyl)amino)pyrimidin-4-yl)pyridin-2-yl)isoxazol-5-yl)-3-hydroxy-1-methylpyrrolidin-2-one] | > 500 |
